The values below come from patent publication US10195144B2, “Methods of treating inflammatory and autoimmune diseases and disorders” (Yale University, priority 2012, dated 2019).

Assay [1] relates to female NZB/W F1 mice. The assay is described as follows: survival of lupus-prone mice under life-long weekly therapy. Type of assay: in vivo. As for the experimental part: NZB/W F1 mice develop autoimmunity that resembles human lupus nephritis, with development of glomerulonephritis, anemia, and the generation of autoantibodies specific for double-stranded DNA and other self-antigens. NZB/W F1 mice were administered a life-long, single weekly intraperitoneal injection of nanoparticle therapy beginning at 18 weeks of age, before the onset of proteinuria. The single, weekly MPA dosage in nanoparticles was 0.625 mg of MP A per kg animal (mpk). Control mice received only saline buffer.
Animal studies using female NZB/W F1 mice (The Jackson Laboratory, stock #100008) were performed with the approval of the Yale University Institutional Animal Care and Use Committee. Beginning at 18 weeks of age, NZB/W F1 mice were administered a weekly intraperitoneal injection of nanoparticles or mycophenolic acid in buffer for the entirety of their life. An intraperitoneal injection was used, as opposed to intravenous tail vein injection, to prevent long-term tail vein damage from chronic injections. Mice urine was collected by bladder compression, and blood was collected via retroorbital bleed with isoflurane anesthesia. Mouse survival was continued until symptoms of cachexia (more than 5-10% body weight loss), lethargy, or poor condition warranted humane euthanization.

Assay [2] has as its system NZB/W F1 lupus-prone mice. The assay is described as follows: in vivo comparison of nanolipogels and PLGA particles, survival. As to conditions: 0.625 mg MPA per kg. An excerpt:
The efficacy of nanolipogels was compared to PLGA using both in vivo and in vitro evaluation. […] Survival time was monitored to determine and compare in vivo efficacy between particles.

The subject of assay [3] is CD4 T cells. The assay is described as follows: CD4 T cell proliferation after particle incubation, wash and anti-CD3/anti-CD28 stimulation. It counts as cell-based. Particulars: brief incubation, wash, 4 days stimulation. As for the experimental part:
CD4 T cells were briefly incubated with particles, washed to remove any unbound particles, and then stimulated for 4 days with anti-CD3 and anti-CD28 antibodies to promote proliferation.

As for `COc1c(C)c2c(c(O)c1C/C=C(\C)CCC(=O)O)C(=O)OC2` [MPA, mycophenolic acid], the effect on survival entry is listed as “no effect on extending survival” in assay [1] (0.625 mpk soluble in buffer); “could not achieve the same therapeutic effect” in assay [1] (10 mpk (16-fold) in buffer, listed as MPA administered in buffer); “no improvement in survival” in assay [1] (10 mpk (16-fold) in buffer, listed as free MPA). The “increase of survival time of treated mice” value in assay [2] is given as “not”. The “CD4 T cell proliferation and cytokine production” value in assay [3] is “normal proliferation and cytokine production”.
